In the NIST ThermoML archive (doi:10.1016/j.fluid.2013.08.005):

Assay: mn = molality of the nth substance listed, in mol/kg
Conditions: 298.15 K, 101 kPa, Liquid; for electrical conductivity: Alternating current cell with electrodes; for mass density: Vibrating tube method

CCCCCC[N+](C)(C)C.[Br-] [hexyltrimethylammonium bromide] + O
Conditions | electrical conductivity [S/m] | mass density [kg/m3]
m1 = 0.02501 | 0.446 | 997.79
m1 = 0.05001 | 0.641 | 998.57
m1 = 0.07505 | 0.99 | 999.34
m1 = 0.125 | 1.02 | 1000.88
m1 = 0.13 | 1.15 | 1001.05
m1 = 0.15 | 1.3 | 1001.64
m1 = 0.1751 | 1.72 | 1002.41
m1 = 0.25 | 1.85 | 1004.69
m1 = 0.2751 | 2.08 | 1005.39
m1 = 0.3251 | 2.2 | 1006.85
m1 = 0.3501 | 2.41 | 1007.63
m1 = 0.4001 | 2.51 | 1009.06
m1 = 0.425 | 2.79 | 1009.77
m1 = 0.5001 | 3.53 | 1011.89
m1 = 0.7503 | 3.83 | 1018.71
m1 = 0.8791 | 4.07 | 1021.99
m1 = 1 | 0.239 | 1025.02
m1 = 1.501 | – | 1036.33
m1 = 2.001 | – | 1046
